Data reported in ChEMBL document CHEMBL1250518, “Nonsteroidal dissociated glucocorticoid agonists containing azaindoles as steroid A-ring mimetics” (J Med Chem, 2010).

What was measured:
Progesterone receptor = biological target: T1, Progesterone receptor (Homo sapiens, UniProt P06401); assay: Binding affinity to progesterone receptor expressed in baculovirus-infected insect cells using tetramethylrhodamine labeled RU-486 by fluorescence polarization microplate assay
T1 sequence (P06401 whole entry): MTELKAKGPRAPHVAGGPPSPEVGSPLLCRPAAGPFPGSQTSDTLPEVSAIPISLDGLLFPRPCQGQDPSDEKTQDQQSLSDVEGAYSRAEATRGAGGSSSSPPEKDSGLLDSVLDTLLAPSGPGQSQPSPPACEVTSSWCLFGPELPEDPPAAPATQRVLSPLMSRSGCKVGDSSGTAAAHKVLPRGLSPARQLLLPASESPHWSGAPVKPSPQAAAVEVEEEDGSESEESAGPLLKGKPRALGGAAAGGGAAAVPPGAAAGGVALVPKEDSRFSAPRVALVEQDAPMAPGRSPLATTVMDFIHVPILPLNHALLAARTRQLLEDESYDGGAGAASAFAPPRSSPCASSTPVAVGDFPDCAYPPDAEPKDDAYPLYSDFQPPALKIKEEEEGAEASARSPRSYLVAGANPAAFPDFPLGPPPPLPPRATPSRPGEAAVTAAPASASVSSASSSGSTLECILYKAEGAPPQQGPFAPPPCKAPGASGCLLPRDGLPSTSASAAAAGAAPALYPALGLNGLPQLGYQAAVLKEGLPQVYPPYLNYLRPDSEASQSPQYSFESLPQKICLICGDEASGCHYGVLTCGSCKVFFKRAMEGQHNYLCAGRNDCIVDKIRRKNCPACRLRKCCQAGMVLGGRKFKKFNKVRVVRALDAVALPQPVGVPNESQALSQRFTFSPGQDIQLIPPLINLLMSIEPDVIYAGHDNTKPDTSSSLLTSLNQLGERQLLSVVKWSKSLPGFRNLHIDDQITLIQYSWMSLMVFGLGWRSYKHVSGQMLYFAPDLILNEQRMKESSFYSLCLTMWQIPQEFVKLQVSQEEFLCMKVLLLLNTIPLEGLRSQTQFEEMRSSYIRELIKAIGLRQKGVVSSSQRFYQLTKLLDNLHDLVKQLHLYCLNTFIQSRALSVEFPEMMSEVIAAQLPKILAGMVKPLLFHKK

Glucocorticoid receptor [1] = biological target: T2, Glucocorticoid receptor (Homo sapiens, UniProt P04150); assay: Binding affinity to glucocorticoid receptor expressed in baculovirus-infected insect cells using tetramethylrhodamine labeled Dexamethasone by fluorescence polarization microplate assay
T2 sequence (P04150 whole entry): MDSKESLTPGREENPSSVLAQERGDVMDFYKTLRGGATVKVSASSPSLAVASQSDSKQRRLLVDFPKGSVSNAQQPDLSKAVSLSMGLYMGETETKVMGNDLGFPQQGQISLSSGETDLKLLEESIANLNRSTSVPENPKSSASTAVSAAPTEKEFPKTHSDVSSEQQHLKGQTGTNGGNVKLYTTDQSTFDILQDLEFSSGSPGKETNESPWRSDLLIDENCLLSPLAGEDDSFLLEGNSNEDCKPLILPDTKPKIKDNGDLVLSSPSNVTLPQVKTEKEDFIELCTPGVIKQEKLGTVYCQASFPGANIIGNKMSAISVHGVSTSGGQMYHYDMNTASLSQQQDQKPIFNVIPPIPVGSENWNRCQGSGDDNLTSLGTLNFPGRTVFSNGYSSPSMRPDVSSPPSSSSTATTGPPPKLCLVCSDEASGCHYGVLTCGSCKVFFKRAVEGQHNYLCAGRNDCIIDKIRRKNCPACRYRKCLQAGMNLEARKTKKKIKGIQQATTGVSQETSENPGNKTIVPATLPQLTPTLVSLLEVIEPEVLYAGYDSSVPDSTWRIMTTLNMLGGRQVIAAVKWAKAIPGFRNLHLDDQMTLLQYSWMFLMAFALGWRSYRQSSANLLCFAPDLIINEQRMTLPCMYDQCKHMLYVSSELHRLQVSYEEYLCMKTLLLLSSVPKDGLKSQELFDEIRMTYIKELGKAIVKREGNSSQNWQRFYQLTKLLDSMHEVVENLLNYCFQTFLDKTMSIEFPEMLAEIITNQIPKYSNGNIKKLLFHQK

Glucocorticoid receptor [2] = biological target: T2, Glucocorticoid receptor; assay: Transactivation activity at glucocorticoid receptor in HFF assessed as induction of aromatase activity after 18 to 24 hrs by ELISA; format: cell-based
Glucocorticoid receptor [3] = biological target: T2, Glucocorticoid receptor; assay: Transactivation activity at glucocorticoid receptor in human HeLa cells transfected with luciferase gene linked to MMTV promoter by luciferase assay; format: cell-based
Glucocorticoid receptor [4] = biological target: T2, Glucocorticoid receptor; assay: Transrepression activity at glucocorticoid receptor in HFF assessed as inhibition of IL-1-induced IL-6 production after 18 to 24 hrs by ELISA; format: cell-based
[5] = biological target: T3, Mineralocorticoid receptor (Homo sapiens, UniProt P08235); assay: Binding affinity to mineralocorticoid receptor expressed in baculovirus-infected insect cells using tetramethylrhodamine labeled Dexamethasone by fluorescence polarization microplate assay
T3 sequence (P08235 whole entry): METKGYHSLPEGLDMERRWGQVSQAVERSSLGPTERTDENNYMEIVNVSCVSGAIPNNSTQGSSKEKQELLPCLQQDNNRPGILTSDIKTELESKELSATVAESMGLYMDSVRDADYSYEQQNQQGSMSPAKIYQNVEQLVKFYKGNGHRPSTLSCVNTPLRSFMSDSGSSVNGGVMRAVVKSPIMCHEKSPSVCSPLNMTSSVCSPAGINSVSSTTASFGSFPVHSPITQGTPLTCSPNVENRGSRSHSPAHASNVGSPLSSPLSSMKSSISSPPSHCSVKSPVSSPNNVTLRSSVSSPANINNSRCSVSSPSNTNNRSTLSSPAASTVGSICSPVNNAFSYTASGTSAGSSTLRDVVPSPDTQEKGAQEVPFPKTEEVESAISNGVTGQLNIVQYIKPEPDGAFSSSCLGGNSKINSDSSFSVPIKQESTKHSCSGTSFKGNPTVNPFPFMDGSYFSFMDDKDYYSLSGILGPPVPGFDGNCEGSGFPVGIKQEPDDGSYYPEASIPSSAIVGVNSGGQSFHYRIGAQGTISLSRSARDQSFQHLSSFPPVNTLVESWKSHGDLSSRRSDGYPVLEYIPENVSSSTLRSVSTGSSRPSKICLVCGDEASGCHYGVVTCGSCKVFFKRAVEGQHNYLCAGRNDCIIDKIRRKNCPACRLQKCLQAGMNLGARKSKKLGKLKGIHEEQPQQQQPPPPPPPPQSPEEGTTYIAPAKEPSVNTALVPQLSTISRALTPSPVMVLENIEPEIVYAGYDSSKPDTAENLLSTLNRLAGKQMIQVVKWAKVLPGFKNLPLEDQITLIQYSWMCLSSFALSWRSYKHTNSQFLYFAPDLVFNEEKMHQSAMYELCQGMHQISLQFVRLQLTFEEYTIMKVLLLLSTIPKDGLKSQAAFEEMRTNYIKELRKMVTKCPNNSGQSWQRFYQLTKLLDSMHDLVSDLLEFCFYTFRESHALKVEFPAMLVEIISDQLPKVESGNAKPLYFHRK

Row | SMILES | IC50 (Progesterone receptor) [nM] | IC50 (Glucocorticoid receptor [1]) [nM] | EC50 (Glucocorticoid receptor [2]) [nM] | IC50 (Glucocorticoid receptor [3]) [nM] | IC50 (Glucocorticoid receptor [4]) [nM] | IC50 [5] [nM]
1 | COc1ccc(F)cc1C(C)(C)C[C@@](O)(Cc1cc2cnccc2[nH]1)C(F)(F)F | 600 | 1.4 | 35 | 22 | 2 | 58
2 | COc1ccc(F)cc1C(C)(C)CC(O)(Cn1ccc2ncccc21)C(F)(F)F (stereo unspecified) | 200 | 2 | – | – | 2.8 | 48
3 | CC(C)(CC(O)(Cc1cc2ccncc2[nH]1)C(F)(F)F)c1cc(F)cc2c1OCC2 (stereo unspecified) | 450 | 2.3 | – | > 2000 | 9.3 | 280
4 | COc1ccc(F)cc1C(C)(C)CC(O)(Cn1ccc2ccncc21)C(F)(F)F (stereo unspecified) | > 2000 | 1400 | – | – | – | > 2000
5 | CC(C)(CC(O)(Cc1cc2ccncc2[nH]1)C(F)(F)F)c1cccc2c1OCC2 (stereo unspecified) | 130 | 4.5 | 30 | > 2000 | 15 | 780
6 | C[C@@H]1C[C@H]2[C@@H]3CCC4=CC(=O)C=C[C@]4(C)[C@@]3(F)[C@@H](O)C[C@]2(C)[C@@]1(O)C(=O)CO [DEXAMETHASONE] | > 2000 | – | – | – | – | –
7 | COc1ccc(F)cc1C(C)(C)CC(O)(Cc1cc2ccncc2o1)C(F)(F)F (stereo unspecified) | > 2000 | 22 | – | – | > 2000 | 1050
8 | CC(C)(C[C@@](O)(Cc1cc2cnccc2[nH]1)C(F)(F)F)c1cc(F)ccc1O | 1900 | 4.7 | 45 | 56 | 3 | 220
9 | COc1ccc(F)cc1C(C)(C)CC(O)(Cc1cc2ccccn2n1)C(F)(F)F (stereo unspecified) | > 2000 | 690 | – | – | > 2000 | > 2000
10 | CC(C)(CC(O)(Cc1cc2ccncc2[nH]1)C(F)(F)F)c1cccc(F)c1 (stereo unspecified) | 8 | 23 | > 2000 | – | 99 | > 2000
11 | CC(C)(CC(O)(Cc1cc2ccncc2[nH]1)C(F)(F)F)c1ccccc1 (stereo unspecified) | 190 | 9.3 | > 2000 | > 2000 | 31 | 810
12 | COc1ccc(F)cc1C(C)(C)CC(O)(Cc1cc2cccnc2[nH]1)C(F)(F)F (stereo unspecified) | > 2000 | 21 | – | – | > 2000 | 910
13 | COc1ccc(F)cc1C(C)(C)CC(O)(Cc1cc2cc[n+]([O-])cc2[nH]1)C(F)(F)F (stereo unspecified) | > 2000 | 860 | – | – | – | > 2000
14 | COc1ccc(F)cc1C(C)(C)C[C@](O)(Cc1cc2ccncc2[nH]1)C(F)(F)F | > 2000 | 1700 | – | – | 430 | > 2000
15 | COc1ccc(-c2cccnc2)cc1C(C)(C)CC(O)(Cc1cc2ccncc2[nH]1)C(F)(F)F (stereo unspecified) | > 2000 | 8 | > 2000 | – | 30 | 390
16 | CC(C)(CC(O)(Cc1cc2ccncc2[nH]1)C(F)(F)F)c1cc(-c2cccnc2)ccc1O (stereo unspecified) | > 2000 | 6.6 | – | > 2000 | 23 | 230
17 | CC(C)(CC(O)(Cc1cc2ccncc2[nH]1)C(F)(F)F)c1cc(-c2cncnc2)ccc1O (stereo unspecified) | > 2000 | 19 | – | – | 21 | 1700
18 | COc1ccc(F)cc1C(C)(C)CC(O)(Cc1cc2ccncc2s1)C(F)(F)F (stereo unspecified) | 1300 | 7.1 | – | – | 35 | 220
19 | CC(C)(CC(O)(Cc1cc2ccncc2[nH]1)C(F)(F)F)c1cc(-c2ccccc2)ccc1O (stereo unspecified) | 1300 | 11 | 45 | 47 | 15 | 160
20 | COc1ccc(F)cc1C(C)(C)CC(O)(Cc1cc2ncccc2[nH]1)C(F)(F)F (stereo unspecified) | > 2000 | 23 | – | – | 120 | > 2000
21 | COc1ccc(F)cc1C(C)(C)CC(O)(Cc1cc2cnccc2[nH]1)C(F)(F)F (stereo unspecified) | > 2000 | 7.3 | – | – | 8.2 | 320
22 | COc1ccc(F)cc1C(C)(C)CC(O)(Cc1cc2ccccc2[nH]1)C(F)(F)F (stereo unspecified) | 250 | 21 | – | – | 6.6 | 380
23 | CC(C)(CC(O)(Cc1cc2ccncc2[nH]1)C(F)(F)F)c1cc(Cl)cc2c1OCC2 (stereo unspecified) | 1210 | 7 | 120 | > 2000 | 17 | 540
24 | COc1ccc(F)cc1C(C)(C)CC(O)(Cc1cc2ccncc2[nH]1)C(F)(F)F (stereo unspecified) | > 2000 | 4.4 | – | – | 9.8 | 580
25 | COc1ccc(-c2cncnc2)cc1C(C)(C)CC(O)(Cc1cc2ccncc2[nH]1)C(F)(F)F (stereo unspecified) | > 2000 | 27 | – | – | 50 | > 2000
26 | COc1ccc(-c2ccccc2)cc1C(C)(C)CC(O)(Cc1cc2ccncc2[nH]1)C(F)(F)F (stereo unspecified) | 1200 | 12 | 69 | – | 40 | 480
